Laboratory results as given in patent US10022453B2 (BAYER PHARMA AKTIENGESELLSCHAFT, priority 2013, dated 2018).

Legend:
[1] = Cell permeability, flux assay using Caco-2 cells; conditions: human, Caco-2
Experimental: C-3 In Vitro Tests for Determining Cell Permeability
The cell permeability of a substance can be investigated by means of in vitro testing in a flux assay using Caco-2 cells [M. D. Troutman and D. R. Thakker, Pharm. […] For this purpose, the cells were cultured for 15-16 days on 24-well filter plates. For the determination of permeation, the respective working example was applied in a HEPES buffer to the cells either apically (A) or basally (B) and incubated for 2 hours. After 0 hours and after 2 hours, samples were taken from the cis and trans compartments. The samples were separated by HPLC (Agilent 1200, Böblingen, Germany) using reverse phase columns.
Of critical importance for toxophores which are released intracellularly is the permeability from B to A [Papp(B-A)] and the ratio of Papp(B-A) to Papp(A-B) (efflux ratio): the lower this permeability, the slower the active and passive transport processes of the substance through the monolayer of Caco-2 cells.

NCI-H292 = assay: Cytotoxic effects, MTT assay; format: cell-based; conditions: Homo sapiens, 72 h incubation
Experimental: The cells are cultivated by a standard method, as indicated in the […] (ATCC) for the respective cell lines.
At the end of the selected incubation time, the MTT reagent is incubated with the cells for 4 h, followed by lysis of the cells overnight by addition of the detergent. […] The proliferation of cells which were not treated with test substance but were otherwise identically treated was defined as the 100% figure.

[2] = molecular target: T1, human kinesin spindle protein KSP/Eg5 (Homo sapiens, UniProt P52732); assay: Inhibition of the kinesin spindle protein KSP/Eg5 (ATPase, malachite green); format: biochemical; conditions: 10 nM KSP motor domain, 500 μM ATP, 2 h RT
T1 construct: The motor domain of the human kinesin spindle protein KSP/Eg5; purchased tebu-bio/Cytoskeleton Inc 027EG01-XL
T1 sequence (P52732 18-359 limits assumed): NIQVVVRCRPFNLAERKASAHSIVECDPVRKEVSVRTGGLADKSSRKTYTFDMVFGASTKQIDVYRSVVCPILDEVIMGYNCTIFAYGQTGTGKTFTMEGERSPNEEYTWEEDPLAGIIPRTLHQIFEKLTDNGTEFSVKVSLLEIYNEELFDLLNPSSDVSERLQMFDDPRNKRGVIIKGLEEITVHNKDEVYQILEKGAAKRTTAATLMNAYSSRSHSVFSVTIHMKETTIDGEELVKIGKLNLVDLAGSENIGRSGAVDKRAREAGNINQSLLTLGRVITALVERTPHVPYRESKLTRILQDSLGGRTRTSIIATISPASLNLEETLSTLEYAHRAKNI
Experimental: C-1b Determination of the Inhibition of the Kinesin Spindle Protein KSP/Eg5 by Selected Examples
The motor domain of the human kinesin spindle protein KSP/Eg5 (from tebu-bio/Cytoskeleton Inc, No. 027EG01-XL) is incubated at a concentration of 10 nM with 50 μg/ml taxol- (from Sigma No. T7191-5MG) stabilized microtubuli (bovine or porcine, from tebu-bio/Cytoskeleton Inc) for 5 min at RT in 15 mM PIPES, pH 6.8 (5 mM MgCl2 and 10 mM DTT, from Sigma). The freshly prepared mixture is aliquoted into a 384-well MTP. The inhibitors to be examined at concentrations of 1.0×10^−6 M to 1.0×10^−13 and ATP (final concentration 500 μM, from Sigma) are then added. Incubation is at RT for 2 h. ATPase activity is detected by detecting the inorganic phosphate formed using malachite green (from Biomol). […] The individual data of the dose-activity curve are eight-fold determinations. The IC50 values are means of three independent experiments.

Compound	Papp B→A at 2 h [1] [×10⁻⁶ cm/s]	efflux ratio at 2 h [1]	IC50 (NCI-H292) [nM]	IC50 [2] [nM]
CC(C)(C)[C@H](c1cc(-c2cc(F)ccc2F)cn1Cc1ccccc1)N(CCCN)C(=O)CSCCC(NC(=O)CCOCCOCCOCCOCCNC(=O)CCN1C(=O)CC(SC[C@H](N)C(=O)O)C1=O)C(=O)O.O=C(O)C(F)(F)F (mixture of isomers) [Example 138, N-[19-(3(R/S)-{[(2R)-2-amino-2-carboxyethyl]sulphanyl}-2,5-dioxopyrrolidin-1-yl)-17-oxo-4,7,10,13-tetraoxa-16-azanonadecan-1-oyl]-R/S-{2-[(3-aminopropyl){(1R)-1-[1-benzyl-4-(2,5-difluorophenyl)-1H-pyrrol-2-yl]-2,2-dimethylpropyl}amino]-2-oxoethyl}homocysteine/trifluoroacetic acid (1:1)]	0.17	1.6	≥ 500	
CC(C)(C)[C@H](c1nc(-c2cc(F)ccc2F)cn1Cc1ccccc1)N(CC[C@H](N)C(=O)NCCOCCOCCOCCC(=O)O)C(=O)CO.O=C(O)C(F)(F)F [Example 71, (15S,19R)-15-Amino-19-[1-benzyl-4-(2,5-difluorophenyl)-1H-imidazol-2-yl]-18-glycoloyl-20,20-dimethyl-14-oxo-4,7,10-trioxa-13,18-diazahenicosan-1-oic acid/trifluoroacetic acid (1:1)]	28	280		1.22
CC(C)[C@H](NC(=O)CCNC(=O)[C@@H](N)CCN(C(=O)CO)[C@@H](c1nc(-c2cc(F)ccc2F)cn1Cc1ccccc1)C(C)(C)C)C(=O)N[C@@H](CCCNC(N)=O)C(=O)O.O=C(O)C(F)(F)F [Example 72, N-{(2S)-2-Amino-4-[{(1R)-1-[1-benzyl-4-(2,5-difluorophenyl)-1H-imidazol-2-yl]-2,2-dimethylpropyl}(glycoloyl)amino]butanoyl}-beta-alanyl-L-valyl-N^5-carbamoyl-L-ornithine/trifluoroacetic acid (1:1)]	0.25	2.1		4.85
C[C@H](NC(=O)CCNC(=O)[C@@H](N)CCN(C(=O)CO)[C@@H](c1nc(-c2cc(F)ccc2F)cn1Cc1ccccc1)C(C)(C)C)C(=O)N[C@@H](CCCNC(N)=O)C(=O)O.O=C(O)C(F)(F)F [Example 73, N-{(2S)-2-Amino-4-[{(1R)-1-[1-benzyl-4-(2,5-difluorophenyl)-1H-imidazol-2-yl]-2,2-dimethylpropyl}(glycoloyl)amino]butanoyl}-beta-alanyl-L-alanyl-N^5-carbamoyl-L-ornithine/trifluoroacetic acid (1:1)]	0.46	2.7		4.52
CC(C)(C)[C@H](c1nc(-c2cc(F)ccc2F)cn1Cc1ccccc1)N(CC[C@H](N)C(=O)NCCC(=O)N[C@@H](Cc1ccc(N)cc1)C(=O)O)C(=O)CO.O=C(O)C(F)(F)F.O=C(O)C(F)(F)F [Example 74, N-{(2S)-2-Amino-4-[{(1R)-1-[1-benzyl-4-(2,5-difluorophenyl)-1H-imidazol-2-yl]-2,2-dimethylpropyl}(glycoloyl)amino]butanoyl}-beta-alanyl-4-amino-L-phenylalanine/trifluoroacetic acid (1:2)]	2.6	15		6.13
CC(C)(C)[C@H](c1nc(-c2cc(F)ccc2F)cn1Cc1ccccc1)N(CC[C@H](N)C(=O)O)C(=O)CO.O=C(O)C(F)(F)F [Example 76, (2S)-2-Amino-4-[{(1R)-1-[1-benzyl-4-(2,5-difluorophenyl)-1H-imidazol-2-yl]-2,2-dimethylpropyl}(glycoloyl)amino]butanoic acid/trifluoroacetic acid (1:1)]	5.5	27		2.33
CC(C)(C)[C@H](c1nc(-c2cc(F)ccc2F)cn1Cc1ccccc1)N(CC[C@H](N)CN)C(=O)CO.O=C(O)C(F)(F)F [Example 78, Trifluoroacetic acid/N-{(1R)-1-[1-benzyl-4-(2,5-difluorophenyl)-1H-imidazol-2-yl]-2,2-dimethylpropyl}-N-[(3S)-3,4-diaminobutyl]-2-hydroxyacetamide (1:1)]	14	44		4.95
CC(C)(C)[C@H](c1nc(-c2cc(F)ccc2F)cn1Cc1ccccc1)N(CC[C@H](N)C(=O)NCCN)C(=O)CO.O=C(O)C(F)(F)F.O=C(O)C(F)(F)F [Example 80, Trifluoroacetic acid/(2S)-2-amino-N-(2-aminoethyl)-4-[{(1R)-1-[1-benzyl-4-(2,5-difluorophenyl)-1H-imidazol-2-yl]-2,2-dimethylpropyl}(glycoloyl)amino]butanamide (2:1)]	20	22		3.72
CC(C)(C)[C@H](c1nc(-c2cc(F)ccc2F)cn1Cc1ccccc1)N(CC[C@H](N)C(=O)NCCNC(=O)CSC[C@H](N)C(=O)O)C(=O)CO.O=C(O)C(F)(F)F [Example 97, S-(2-{[2-({(2S)-2-Amino-4-[{(1R)-1-[1-benzyl-4-(2,5-difluorophenyl)-1H-imidazol-2-yl]-2,2-dimethylpropyl}(glycoloyl)amino]butanoyl}amino)ethyl]amino}-2-oxoethyl)-L-cysteine/trifluoroacetic acid (1:1)]	0.56	2		2.13
CNC(=O)[C@@H](N)CCN(C(=O)CO)[C@@H](c1cc(-c2cc(F)ccc2F)cn1Cc1ccccc1)C(C)(C)C.O=C(O)C(F)(F)F [Example 99, Trifluoroacetic acid/(2S)-2-amino-4-[{(1R)-1-[1-benzyl-4-(2,5-difluorophenyl)-1H-pyrrol-2-yl]-2,2-dimethylpropyl}(glycoloyl)amino]-N-methylbutanamide (1:1)]	30.3	8.7	0.851	
CC(C)(C)[C@H](c1cc(-c2cc(F)ccc2F)cn1Cc1ccccc1)N(CC[C@H](N)C(=O)NCCNC(=O)CN1C(=O)CC(SC[C@H](N)C(=O)O)C1=O)C(=O)CO.O=C(O)C(F)(F)F (stereo partly drawn) [Example 135, S-[1-(2-{[2-({(2S)-2-Amino-4-[{(1R)-1-[1-benzyl-4-(2,5-difluorophenyl)-1H-pyrrol-2-yl]-2,2-dimethylpropyl}(glycoloyl)amino]butanoyl}amino)ethyl]amino}-2-oxoethyl)-2,5-dioxopyrrolidin-3-yl]-L-cysteine/trifluoroacetic acid (1:1)]	0.78	4	≥ 500	
CC(C)(C)[C@H](c1cc(-c2cc(F)ccc2F)cn1Cc1ccccc1)N(CC[C@H](N)C(=O)NCCNC(=O)CSC[C@H](N)C(=O)O)C(=O)CO.O=C(O)C(F)(F)F [Example 158, S-(2-{[2-({(2S)-2-Amino-4-[{(1R)-1-[1-benzyl-4-(2,5-difluorophenyl)-1H-pyrrol-2-yl]-2,2-dimethylpropyl}(glycoloyl)amino]butanoyl}amino)ethyl]amino}-2-oxoethyl)-L-cysteine/trifluoroacetic acid (1:1)]	0.56	2.2	22.2	
CC(C)(C)[C@H](c1cc(-c2cc(F)ccc2F)cn1Cc1ccccc1)N(CC[C@H](N)C(=O)NCCNC(=O)CC[C@H](N)C(=O)O)C(=O)CO.O=C(O)C(F)(F)F [Example 161, N-[2-({(2S)-2-Amino-4-[{(1R)-1-[1-benzyl-4-(2,5-difluorophenyl)-1H-pyrrol-2-yl]-2,2-dimethylpropyl}(glycoloyl)amino]butanoyl}amino)ethyl]-L-glutamine/trifluoroacetic acid (1:1)]	0.16		35.5	
CC(C)(C)[C@H](c1cc(-c2cc(F)ccc2F)cn1Cc1ccccc1)N(CC[C@H](N)C(=O)NCCC(=O)NCCCC[C@H](N)C(=O)O)C(=O)CO.O=C(O)C(F)(F)F [Example 162, N^6-(N-(2S)-2-Amino-4-[{(1R)-1-[1-benzyl-4-(2,5-difluorophenyl)-1H-pyrrol-2-yl]-2,2-dimethylpropyl (glycoloyl)amino]butanoyl}-beta-alanyl)-L-lysine/trifluoroacetic acid (1:1)]	0.2		121	
